This assay deals with T1, human neprilysin (EC 3.4.24.11; NEP) (Homo sapiens, UniProt P08473).
T1 construct: purchased R&D Systems, Minneapolis, Minn; 1182-ZN
Description: In vitro enzyme inhibition assay at human NEP (fluorogenic peptide substrate). Type of assay: biochemical. Conditions: recombinant human NEP; 37° C.; substrate Mca-D-Arg-Arg-Leu-Dap-(Dnp)-OH 10 μM; values given as ranges; read-out: pKi values at human NEP (converted). The procedure:
In vitro Assays for the Quantitation of Inhibitor Potencies at Human and Rat NEP, and Human ACE
The inhibitory activities of compounds at human and rat neprilysin (EC 3.4.24.11; NEP) and human angiotensin converting enzyme (ACE) were determined using in vitro assays as described below.
Recombinant human NEP and recombinant human ACE were obtained commercially (R&D Systems, Minneapolis, Minn., catalog numbers 1182-ZN and 929-ZN, respectively). The fluorogenic peptide substrate Mca-D-Arg-Arg-Leu-Dap-(Dnp)-OH (Medeiros et al. (1997) Braz. J. Med. Biol. Res. 30:1157-62; Anaspec, San Jose, Calif.) and Abz-Phe-Arg-Lys(Dnp)-Pro-OH (Araujo et al. (2000) Biochemistry 39:8519-8525; Bachem, Torrance, Calif.) were used in the NEP and ACE assays respectively.
The assays were performed in 384-well white opaque plates at 37° C. using the fluorogenic peptide substrates at a concentration of 10 μM in Assay Buffer (NEP: 50 mM HEPES, pH 7.5, 100 mM NaCl, 0.01% polyethylene glycol sorbitan monolaurate (Tween-20), 10 μM ZnSO4; ACE: 50 mM HEPES, pH 7.5, 100 mM NaCl, 0.01% Tween-20, 1 μM ZnSO4).
Test compounds were assayed over the range of concentrations from 10 μM to 20 pM. Test compounds were added to the enzymes and incubated for 30 minute at 37° C. prior to initiating the reaction by the addition of substrate. Reactions were terminated after 20 minutes of incubation at 37° C. by the addition of glacial acetic acid to a final concentration of 3.6% (v/v).
Plates were read on a fluorometer with excitation and emission wavelengths set to 320 nm and 405 nm, respectively Inhibition constants were obtained by nonlinear regression of the data using the equation (GraphPad Software, Inc., San Diego, Calif.): v=v0/[1+(I/K′)] where v is the reaction rate, v0 is the uninhibited reaction rate, I is the inhibitor concentration and K′ is the apparent inhibition constant.
Compounds of the invention were tested in this assay and found to have pKi values at human NEP as follows.

The source of these data is patent publication US8686184B2, “Neprilysin inhibitors” (Theravance, Inc., priority 2011, dated 2014).

A value given as a limit tells only on which side of the number the result lay.

T1 sequence (P08473 52-750 limits assumed): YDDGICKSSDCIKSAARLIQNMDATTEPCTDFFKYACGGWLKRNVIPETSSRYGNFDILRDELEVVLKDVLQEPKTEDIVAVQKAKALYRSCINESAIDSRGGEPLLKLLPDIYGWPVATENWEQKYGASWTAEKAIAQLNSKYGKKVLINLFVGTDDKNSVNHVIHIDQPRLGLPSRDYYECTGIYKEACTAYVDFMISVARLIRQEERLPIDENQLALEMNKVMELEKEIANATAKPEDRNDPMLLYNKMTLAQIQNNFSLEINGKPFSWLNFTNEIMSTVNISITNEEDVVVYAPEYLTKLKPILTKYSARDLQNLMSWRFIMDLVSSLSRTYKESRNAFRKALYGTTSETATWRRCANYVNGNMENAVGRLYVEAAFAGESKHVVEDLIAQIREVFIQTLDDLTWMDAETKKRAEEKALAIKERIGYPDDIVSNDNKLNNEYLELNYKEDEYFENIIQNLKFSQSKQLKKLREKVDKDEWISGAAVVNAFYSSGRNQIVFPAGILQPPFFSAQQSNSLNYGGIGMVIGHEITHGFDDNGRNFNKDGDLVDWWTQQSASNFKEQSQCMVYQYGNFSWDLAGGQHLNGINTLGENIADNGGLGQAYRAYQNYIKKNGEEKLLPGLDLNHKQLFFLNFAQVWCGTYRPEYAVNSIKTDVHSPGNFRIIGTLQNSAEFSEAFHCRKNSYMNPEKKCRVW

As for `O=C(N[C@H](Cc1ccccc1)[C@@H](O)C(=O)O)c1ccc(CCn2ccnc2)cc1` [Example 10-47, (2R,3R)-2-Hydroxy-3-[4-(2-imidazol-1-yl-ethyl)-benzoylamino]-4-phenyl-butyric acid], the Ki is 12.6 to 100 nM. Turning to `O=C(O)Cc1ccccc1-c1ccc(C(=O)N[C@H](Cc2ccccc2)[C@@H](O)C(=O)O)cc1` [Example 10-48, (2R,3R)-3-[(2′-Carboxymethyl-biphenyl-4-carbonyl)-amino]-2-hydroxy-4-phenyl-butyric acid], the Ki was 1.26 to 10 nM. Take `O=C(O)Cc1cccc(-c2ccc(C(=O)N[C@H](Cc3ccccc3)[C@@H](O)C(=O)O)cc2)c1` [Example 10-49, (2R,3R)-3-[(3′-Carboxymethyl-biphenyl-4-carbonyl)-amino]-2-hydroxy-4-phenyl-butyric acid]: the Ki was 12.6 to 100 nM.

On to `O=C(O)Cc1ccc(-c2ccc(C(=O)N[C@H](Cc3ccccc3)[C@@H](O)C(=O)O)cc2)cc1` [Example 10-50, (2R,3R)-3-[(4′-Carboxymethyl-biphenyl-4-carbonyl)-amino]-2-hydroxy-4-phenyl-butyric acid], for which the Ki is 12.6 to 100 nM. `O=C(O)c1cccc(-c2ccc(C(=O)N[C@H](Cc3ccccc3)[C@@H](O)C(=O)O)cc2)c1` [Example 10-51, 4′-((1R,2R)-1-Benzyl-2-carboxy-2-hydroxy-ethylcarbamoyl)-biphenyl-3-carboxylic acid]: the Ki is 12.6 to 100 nM. The figure for `O=C(Nc1ccc(C(=O)N[C@H](Cc2ccccc2)[C@@H](O)C(=O)O)cc1)Nc1sccc1C(=O)O` [Example 10-52] is 12.6 to 100 nM.

Regarding `Cc1cc(C(=O)O)c(NC(=O)Nc2ccc(C(=O)N[C@H](Cc3ccccc3)[C@@H](O)C(=O)O)cc2)s1` [Example 10-53], the Ki was 12.6 to 100 nM. Consider `Cc1ccc(C(=O)N[C@H](Cc2ccccc2)[C@@H](O)C(=O)O)cc1Br` [Example 10-54, (2R,3R)-3-(3-Bromo-4-methyl-benzoylamino)-2-hydroxy-4-phenyl-butyric acid], for which the Ki is 12.6 to 100 nM. Next, `CC(C)c1ccc(C(=O)N[C@H](Cc2ccccc2)[C@@H](O)C(=O)O)cc1Br` [Example 10-55, (2R,3R)-3-(3-Bromo-4-isopropyl-benzoylamino)-2-hydroxy-4-phenyl-butyric acid]: 12.6 to 100 nM; `CCCNc1ccc(C(=O)N[C@H](Cc2ccccc2)[C@@H](O)C(=O)O)cc1Cl` [Example 10-56, (2R,3R)-3-(3-Chloro-4-propylamino-benzoylamino)-2-hydroxy-4-phenyl-butyric acid]: 12.6 to 100 nM. On to `Cc1cc(C(=O)N[C@H](Cc2ccccc2)[C@@H](O)C(=O)O)ccc1-n1c(C)cc(C=O)c1C` [Example 10-57, (2R,3R)-3-[4-(3-Formyl-2,5-dimethyl-pyrrol-1-yl)-3-methyl-benzoylamino]-2-hydroxy-4-phenyl-butyric acid], for which the Ki was 12.6 to 100 nM.

With `Cc1cc(C(=O)N[C@H](Cc2ccccc2)[C@@H](O)C(=O)O)ccc1-n1cccc1` [Example 10-58, (2R,3R)-2-Hydroxy-3-(3-methyl-4-pyrrol-1-yl-benzoylamino)-4-phenyl-butyric acid], the Ki is 12.6 to 100 nM. Next, `O=C(O)CCc1cccc(C(=O)N[C@H](Cc2ccccc2)[C@@H](O)C(=O)O)c1` [Example 10-59, (2R,3R)-3-[3-(2-Carboxy-ethyl)-benzoylamino]-2-hydroxy-4-phenyl-butyric acid]: 12.6 to 100 nM; `CCCC1=NN(c2cccc(C(=O)N[C@H](Cc3ccccc3)[C@@H](O)C(=O)O)c2)C(=O)C1` [Example 10-60, (2R,3R)-2-Hydroxy-3-[3-(5-oxo-3-propyl-4,5-dihydro-pyrazol-1-yl)-benzoylamino]-4-phenyl-butyric acid]: 12.6 to 100 nM; `Cc1ccc(C(=O)N[C@H](Cc2ccccc2)[C@@H](O)C(=O)O)cc1-c1ccc(C(=O)O)cc1` [Example 10-61, 5′-((1R,2R)-1-Benzyl-2-carboxy-2-hydroxy-ethylcarbamoyl)-2′-methyl-biphenyl-4-carboxylic acid]: 12.6 to 100 nM. Regarding `Cc1ccc(C(=O)N[C@H](Cc2ccccc2)[C@@H](O)C(=O)O)cc1-c1cccc(C(=O)O)c1` [Example 10-62, 5′-((1R,2R)-1-Benzyl-2-carboxy-2-hydroxy-ethylcarbamoyl)-2′-methyl-biphenyl-3-carboxylic acid], the Ki was 12.6 to 100 nM. The figure for `O=C(N[C@H](Cc1ccccc1)[C@@H](O)C(=O)O)c1cccc(-c2ncccc2C(=O)O)c1` [Example 10-63, 2-[3-((1R,2R)-1-Benzyl-2-carboxy-2-hydroxy-ethylcarbamoyl)-phenyl]-nicotinic acid] is 1.26 to 10 nM; for `O=C(N[C@H](Cc1ccccc1)[C@@H](O)C(=O)O)c1cccc(-c2cccnc2C(=O)O)c1` [Example 10-64, 3-[3-((1R,2R)-1-Benzyl-2-carboxy-2-hydroxy-ethylcarbamoyl)-phenyl]-pyridine-2-carboxylic acid] it is 12.6 to 100 nM. Next, `CCc1ccc(C(=O)N[C@H](Cc2ccccc2)[C@@H](O)C(=O)O)cc1-n1c(=O)[nH]c2sc(C)cc2c1=O` [Example 10-65, (2R,3R)-3-[4-Ethyl-3-(6-methyl-2,4-dioxo-1,4-dihydro-2H-thieno[2,3-d]pyrimidin-3-yl)-benzoylamino]-2-hydroxy-4-phenyl-butyric acid]: at most 1 nM.

With `CCCCC(=O)Nc1cc(C(=O)N[C@H](Cc2ccccc2)[C@@H](O)C(=O)O)ccc1CC` [Example 10-66, (2R,3R)-3-(4-Ethyl-3-pentanoylamino-benzoylamino)-2-hydroxy-4-phenyl-butyric acid], the Ki was 12.6 to 100 nM. The figure for `CCc1ccc(C(=O)N[C@H](Cc2ccccc2)[C@@H](O)C(=O)O)cc1NC(=O)CC(=O)O` [Example 10-67, (2R,3R)-3-[3-(2-Carboxy-acetylamino)-4-ethyl-benzoylamino]-2-hydroxy-4-phenyl-butyric acid] is 12.6 to 100 nM; for `CCc1ccc(C(=O)N[C@H](Cc2ccccc2)[C@@H](O)C(=O)O)cc1NC(=O)c1ccccc1` [Example 10-68, (2R,3R)-3-(3-Benzoylamino-4-ethyl-benzoylamino)-2-hydroxy-4-phenyl-butyric acid] it is 12.6 to 100 nM.

With `CCc1ccc(C(=O)N[C@H](Cc2ccccc2)[C@@H](O)C(=O)O)cc1NC(=O)c1cccnc1` [Example 10-69, (2R,3R)-3-{4-Ethyl-3-[(pyridine-3-carbonyl)-amino]-benzoylamino}-2-hydroxy-4-phenyl-butyric acid], the Ki was 12.6 to 100 nM. Next, `CCc1ccc(C(=O)N[C@H](Cc2ccccc2)[C@@H](O)C(=O)O)cc1NC(=O)c1ccccn1` [Example 10-70, (2R,3R)-3-{4-Ethyl-3-[(pyridine-2-carbonyl)-amino]-benzoylamino}-2-hydroxy-4-phenyl-butyric acid]: 12.6 to 100 nM; `CCc1ccc(C(=O)N[C@H](Cc2ccccc2)[C@@H](O)C(=O)O)cc1NC(=O)c1ccncc1` [Example 10-71, (2R,3R)-3-{4-Ethyl-3-[(pyridine-4-carbonyl)-amino]-benzoylamino}-2-hydroxy-4-phenyl-butyric acid]: 12.6 to 100 nM; `CCNC(=O)Nc1cc(C(=O)N[C@H](Cc2ccccc2)[C@@H](O)C(=O)O)ccc1CC` [Example 10-72, (2R,3R)-3-[4-Ethyl-3-(3-ethyl-ureido)-benzoylamino]-2-hydroxy-4-phenyl-butyric acid]: 12.6 to 100 nM. Next, `CCCCNC(=O)Nc1cc(C(=O)N[C@H](Cc2ccccc2)[C@@H](O)C(=O)O)ccc1CC` [Example 10-73, (2R,3R)-3-[3-(3-Butyl-ureido)-4-ethyl-benzoylamino]-2-hydroxy-4-phenyl-butyric acid]: 12.6 to 100 nM; `CCc1ccc(C(=O)N[C@H](Cc2ccccc2)[C@@H](O)C(=O)O)cc1NC(=O)NC(CC(C)C)C(=O)O` (stereo partly drawn) [Example 10-74, 2-{3-[5-((1R,2R)-1-Benzyl-2-carboxy-2-hydroxy-ethylcarbamoyl)-2-ethyl-phenyl]-ureido}-4-methyl-pentanoic acid]: 12.6 to 100 nM; `CCc1ccc(C(=O)N[C@H](Cc2ccccc2)[C@@H](O)C(=O)O)cc1NC(=O)Nc1ccccc1` [Example 10-75, (2R,3R)-3-[4-Ethyl-3-(3-phenyl-ureido)-benzoylamino]-2-hydroxy-4-phenyl-butyric acid]: 12.6 to 100 nM. Next, `CCc1ccc(C(=O)N[C@H](Cc2ccccc2)[C@@H](O)C(=O)O)cc1NC(=O)Nc1sccc1C(=O)O` [Example 10-76, 2-{3-[5-((1R,2R)-1-Benzyl-2-carboxy-2-hydroxy-ethylcarbamoyl)-2-ethyl-phenyl]-ureido}-thiophene-3-carb oxylic acid]: 12.6 to 100 nM.
